Read-outs that look alike come from different tables or passages of the source.
Columns and labels:
[1] = tested on: Salmonella enterica ATCC 10708; experiment: BCT test (bacterial contact time), 60 s, log reduction / effect fraction; CI by Compusyn; type: cell-based; details: Salmonella enterica, ATCC10708, 1 min, BCT 60 s, in 25% EtOH; for log reduction at 0.05 % strength: Dose 0.05 % w/v; for log reduction at 0.06 % strength: Dose 0.06 % w/v; for log reduction at 0.04 % strength: Dose 0.04 % w/v
Method in brief: (§1)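 Perfume ingredients, alone or combined, in ethanol were mixed 1:1 with ~1×10^8 CFU/mL log-phase bacteria in TSB for the stated contact time. Survivors were estimated by serial dilution and OD600 growth at 37 °C; log reduction versus ethanol control. CI from effect fractions via Compusyn (<0.9 synergy, >1.0 antagonism).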

[2] = tested on: Pseudomonas aeruginosa ATCC 15442; experiment: as above; type: cell-based; details: Pseudomonas aeruginosa, ATCC15442, 1 min, BCT 60 s, in 25% EtOH; for log reduction at 0.05 % strength: Dose 0.05 % w/v; for log reduction at 0.1 % strength: Dose 0.1 % w/v; for log reduction at 0.06 % strength: Dose 0.06 % w/v; for log reduction at 0.07 % strength: Dose 0.07 % w/v; for log reduction at 0.08 % strength: Dose 0.08 % w/v
Method in brief: as §1

C. xerosis ATCC 373 = experiment: BCT test (bacterial contact time), 120 s, log reduction / effect fraction; CI by Compusyn; type: cell-based; details: Corynebacterium xerosis, ATCC373, 2 min, contact 120 s, 25% EtOH; for log reduction at 0.25 % strength: dose 0.25% w/v; for log reduction at 0.3 % strength: dose 0.3% w/v; for log reduction at 0.1 % strength: dose 0.1% w/v; for log reduction at 0.15 % strength: dose 0.15% w/v; for log reduction at 0.2 % strength: dose 0.2% w/v
Method in brief: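 C. xerosis cells grown in BHI-TW80 at 37 °C to OD600 1.6 were exposed to ethanolic perfume compositions for 120 s. Viable counts (log CFU) came from serial dilution and OD600 growth after 37 °C incubation, giving log reduction versus ethanol control. CI was computed from concentrations and effect fractions, with <0.9 taken as synergy.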

S. aureus ATCC 6538 = experiment: BCT test (bacterial contact time), 60 s, log reduction / effect fraction; CI by Compusyn; type: cell-based, Staphylococcus aureus; details: Staphylococcus aureus, ATCC6538, 1 min, 60 s, in 25% EtOH; for log reduction at 0.1 % strength: dose 0.100 % w/v; for log reduction at 0.125 % strength: dose 0.125 % w/v; for log reduction at 0.15 % strength: dose 0.150 % w/v; for log reduction at 0.075 % strength: dose 0.075 % w/v; for log reduction at 0.05 % strength: dose 0.050 % w/v
Method in brief: as §1

S. haemolyticus 114126 = experiment: BCT test (bacterial contact time), 120 s, log reduction / effect fraction; CI by Compusyn; type: cell-based; details: Staphylococcus haemolyticus, 114126, 2 min, contact 120 s, 25% EtOH; for log reduction at 0.15 % strength: dose 0.15% w/v; for log reduction at 0.2 % strength: dose 0.2% w/v; for log reduction at 0.1 % strength: dose 0.1% w/v; for log reduction at 0.125 % strength: dose 0.125% w/v; for log reduction at 0.175 % strength: dose 0.175% w/v
Method in brief: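 S. haemolyticus 114126 (skin isolate), grown to OD600 1-2 in BHI-TW80 and resuspended at 1-5×10^8 CFU/mL, was mixed 1:1 with ethanolic perfume compositions or ethanol alone for 45, 60 or 120 s. Viable counts came from serial-dilution regrowth (37 °C, turbidity OD600), giving log reduction versus ethanol control; CI was computed from concentration–effect fraction pairs.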

[3] = dose 0.4% w/v, read-out: Log reduction

C/C=C/c1ccc(O)c(OC)c1 [Isoeugenol, 2-Methoxy-4-(prop-1-en-1-yl)phenol]
log reduction at 0.05 % strength ([1]; read-out: Log reduction): -0.1
log reduction at 0.06 % strength [1]: 0
log reduction at 0.075 % strength ([1]; Dose 0.075 % w/v): 4
log reduction at 0.08 % strength ([1]; Dose 0.08 % w/v): 4
log reduction at 0.08 % strength ([1]; Dose 0.080 % w/v): 0.8
log reduction at 0.1 % strength ([1]; Dose 0.1 % w/v, read-out: Log reduction): 2.6
log reduction at 0.1 % strength ([1]; Dose 0.10 % w/v, read-out: Log reduction): 6.9
log reduction at 0.11 % strength ([1]; Dose 0.110 % w/v): 7.5
log reduction at 0.12 % strength ([1]; Dose 0.120 % w/v, read-out: Log reduction): 7.2
log reduction at 0.125 % strength ([2]; Dose 0.125 % w/v): 7.5
log reduction at 0.15 % strength ([2]; Dose 0.15 % w/v): 7.5
log reduction at 0.25 % strength (C. xerosis ATCC 373; read-out: Log reduction): 2.4
log reduction at 0.3 % strength (C. xerosis ATCC 373; read-out: Log reduction): 3.4
log reduction at 0.4 % strength (C. xerosis ATCC 373; [3]): 5
log reduction at 0.5 % strength (C. xerosis ATCC 373; dose 0.5% w/v): 6.3
log reduction at 0.6 % strength (C. xerosis ATCC 373; dose 0.6% w/v): 6.6
log reduction at 0.1 % strength (S. aureus ATCC 6538): 1.1
log reduction at 0.125 % strength (S. aureus ATCC 6538): 3.7
log reduction at 0.15 % strength (S. aureus ATCC 6538; read-out: Log reduction): 5.6
log reduction at 0.2 % strength (S. aureus ATCC 6538; dose 0.200 % w/v, read-out: Log reduction): 7.5
log reduction at 0.15 % strength (S. haemolyticus 114126): -0.3
log reduction at 0.2 % strength (S. haemolyticus 114126): 0.5
log reduction at 0.25 % strength (S. haemolyticus 114126; dose 0.25% w/v, read-out: Log reduction): 2.2
log reduction at 0.3 % strength (S. haemolyticus 114126; dose 0.3% w/v, read-out: Log reduction): 3.7
log reduction at 0.35 % strength (S. haemolyticus 114126; dose 0.35% w/v): 5.6
log reduction at 0.4 % strength (S. haemolyticus 114126; [3]): 7.2

CC(C)=CCC/C(C)=C\CO [Nerol, (Z)-3,7-dimethyl-2,6-octadien-1-ol]
log reduction at 0.01 % strength ([1]; Dose 0.01 % w/v): 0
log reduction at 0.03 % strength ([1]; Dose 0.03 % w/v): 0.7
log reduction at 0.04 % strength [1]: 2.2
log reduction at 0.05 % strength ([1]; read-out: Log reduction): 5.6
log reduction at 0.06 % strength [1]: 7.3
log reduction at 0.025 % strength ([2]; Dose 0.025 % w/v): 0.4
log reduction at 0.05 % strength [2]: 3.6
log reduction at 0.0625 % strength ([2]; Dose 0.0625 % w/v): 5.6
log reduction at 0.075 % strength ([2]; Dose 0.075 % w/v): 7.4
log reduction at 0.1 % strength [2]: 7.4
log reduction at 0.08 % strength (C. xerosis ATCC 373; dose 0.08% w/v): -0.1
log reduction at 0.1 % strength (C. xerosis ATCC 373): 0.5
log reduction at 0.12 % strength (C. xerosis ATCC 373; dose 0.12% w/v): 2.6
log reduction at 0.14 % strength (C. xerosis ATCC 373; dose 0.14% w/v): 4.9
log reduction at 0.16 % strength (C. xerosis ATCC 373; dose 0.16% w/v): 7.2
log reduction at 0.0625 % strength (S. aureus ATCC 6538; dose 0.0625 % w/v): 1.3
log reduction at 0.075 % strength (S. aureus ATCC 6538): 3.2
log reduction at 0.1 % strength (S. aureus ATCC 6538): 7
log reduction at 0.125 % strength (S. aureus ATCC 6538): 7.3
log reduction at 0.15 % strength (S. aureus ATCC 6538; read-out: Log reduction): 7.5
log reduction at 0.05 % strength (S. haemolyticus 114126; dose 0.05% w/v): 0.1
log reduction at 0.1 % strength (S. haemolyticus 114126): 1.4
log reduction at 0.125 % strength (S. haemolyticus 114126): 4
log reduction at 0.15 % strength (S. haemolyticus 114126): 6.2
log reduction at 0.175 % strength (S. haemolyticus 114126; read-out: Log reduction): 7.4

C=C(C)[C@@H]1CC=C(CO)CC1 [Perycorolle, (S)-(−)-(4-Isopropenyl-1-cyclohexenyl)methanol]
log reduction at 0.04 % strength [1]: 0
log reduction at 0.05 % strength ([1]; read-out: Log reduction): 0.3
log reduction at 0.06 % strength [1]: 0.9
log reduction at 0.07 % strength ([1]; Dose 0.07 % w/v): 2.2
log reduction at 0.08 % strength ([1]; Dose 0.080 % w/v): 5.2
log reduction at 0.05 % strength [2]: 1.8
log reduction at 0.06 % strength [2]: 3.7
log reduction at 0.07 % strength [2]: 5.1
log reduction at 0.08 % strength [2]: 7.1
log reduction at 0.1 % strength [2]: 7.5
log reduction at 0.1 % strength (C. xerosis ATCC 373): 0.2
log reduction at 0.15 % strength (C. xerosis ATCC 373): 3.4
log reduction at 0.2 % strength (C. xerosis ATCC 373; read-out: Log reduction): 4.8
log reduction at 0.25 % strength (C. xerosis ATCC 373; read-out: Log reduction): 6.5
log reduction at 0.3 % strength (C. xerosis ATCC 373; read-out: Log reduction): 6.4
log reduction at 0.05 % strength (S. aureus ATCC 6538): 0.2
log reduction at 0.075 % strength (S. aureus ATCC 6538): 1.6
log reduction at 0.1 % strength (S. aureus ATCC 6538): 5.1
log reduction at 0.125 % strength (S. aureus ATCC 6538): 7.3
log reduction at 0.15 % strength (S. aureus ATCC 6538; read-out: Log reduction): 7.3
log reduction at 0.1 % strength (S. haemolyticus 114126): -0.2
log reduction at 0.125 % strength (S. haemolyticus 114126): 0.4
log reduction at 0.15 % strength (S. haemolyticus 114126): 1.9
log reduction at 0.175 % strength (S. haemolyticus 114126; read-out: Log reduction): 6.4
log reduction at 0.2 % strength (S. haemolyticus 114126): 7.2

CC(CCO)CCc1ccccc1 (centres unmarked) [Phenylhexanol, 3-methyl-5-phenyl-1-pentanol]
log reduction at 0.045 % strength ([1]; Dose 0.045 % w/v): 7.9
log reduction at 0.05 % strength [2]: 3.7
log reduction at 0.06 % strength [2]: 5.3
log reduction at 0.07 % strength [2]: 7.1
log reduction at 0.08 % strength [2]: 7.5
log reduction at 0.15 % strength (C. xerosis ATCC 373): 2.5
log reduction at 0.2 % strength (C. xerosis ATCC 373; read-out: Log reduction): 4.2
log reduction at 0.25 % strength (C. xerosis ATCC 373; read-out: Log reduction): 5.1
log reduction at 0.3 % strength (C. xerosis ATCC 373; read-out: Log reduction): 5.9
log reduction at 0.05 % strength (S. aureus ATCC 6538): 1
log reduction at 0.06 % strength (S. aureus ATCC 6538; dose 0.060 % w/v): 3.3
log reduction at 0.07 % strength (S. aureus ATCC 6538; dose 0.070 % w/v): 6.7
log reduction at 0.08 % strength (S. aureus ATCC 6538; dose 0.080 % w/v): 7
log reduction at 0.09 % strength (S. aureus ATCC 6538; dose 0.090 % w/v): 7.5
log reduction at 0.1 % strength (S. haemolyticus 114126): 1.2
log reduction at 0.125 % strength (S. haemolyticus 114126): 3.9
log reduction at 0.15 % strength (S. haemolyticus 114126): 6.1
log reduction at 0.175 % strength (S. haemolyticus 114126; read-out: Log reduction): 6.9
log reduction at 0.2 % strength (S. haemolyticus 114126): 7.3

— patent publication US12419305B2, “Antimicrobial compositions” (Firmenich SA, priority 2018, dated 2025)
